Measurements published in patent US20250011878A1, “METHOD TO DETECT RNA BIOMARKERS” (ITALFARMACO SPA, priority 2021, published 2025).
Where two headings read alike, the source gives them in different places.

Legend:
PD-L1 = PD-L1 surface expression on human monocytes stimulated with TNF-α; type: cell-based
macrophages = assay: in vitro macrophage differentiation in the presence of ITF3756; type: cell-based
[1] = dog, in vivo, 1000 mg/kg
CT26 tumor cells = assay: CT26 tumor volume in BALB/c mice, responders and non-responders; type: in vivo; details: CT26 s.c. in BALB/c mice, treatment day 10 to day 20; three groups of animals with different tumor reduction
Description: (§1) Adult BALB/c mice were injected s.c. with 1×10^6 CT26 tumor cells (diluted to 100 μl with phosphate buffered saline) and treated with anti-PD1 or ITF3756 when the tumor volume reached 75-100 mm^3, to explore the modulation of genes in the tumor microenvironment by RNAseq. Since ITF3756 acts on the PD-1/PD-L1 axis, this approach allows the identification of genes specific and common to both treatments. The overall schedule is described in Table 9.
Responders and non-responders were selected based on tumor volume at day 20. The volume of the tumor at the beginning of the treatments (day 10) was on average about 75 mm^3. Based on this value of tumor volume, we classified the animals according to the following criteria: • Animals with tumor volume lower or equal to 75 mm^3 were considered RESPONDERS (R) • Animals with tumor volume greater than 75 mm^3 were considered NON RESPONDERS (NR)

[2] = mouse, in vivo, 1000 mg/kg
[3] = rat, in vivo, 1000 mg/kg
PBMC = assay: Quantitative real-time PCR gene modulation in PBMC; type: cell-based, human; details: PBMC treated with 1 μM ITF3756, 4 hours; qPCR vs vehicle-treated cells
Description: The gene expression has been determined by comparing the expression of the above genes in the treated cells versus vehicle-treated cells. PBMC were resuspended in RPMI 1640 medium (Dutch modified, ThermoFisher) at the density of 1×10^6 cells/ml. Cells were plated in 6-well plates (Corning), 3 ml per well. Cells were treated with […] at four concentrations: 0.25, 0.5, 1 and 2 μM. Each treatment concentration was replicated in 3 wells for experimental triplicate test. Vehicle (DMSO 0.05%) treated cells were plated at the same density and volumes. Plates were incubated for 4 hours at 37° C. 5% C02. At the end of treatment incubation cells were collected for total RNA extraction. After treatment with the test compound, PBMC were withdrawn from 6-well plates and collected in 15 ml tubes (Falcon). Wells were washed once with 1 ml of PBS pH 7.4 (ThermoFisher) and the wash volume was added to the collected cell suspensions. […] RNA concentration was determined using Nano Drop 1000 spectrophotometer. […] 3 μl of cDNA corresponding to 40 ng of template were added to PCR reaction reagent for a total volume of 15 μl as shown below: The level of mRNA expression modulation was evaluated comparing the mRNA level in treated versus not-treated samples; all data were normalized versus the average expression signal of three housekeeping genes (reference genes: UBC, B2M and HPRT1) in the corresponding samples. […]

[4] = tested on: tumor microenvironment of CT26-bearing animals; assay: Ex-vivo RNAseq gene expression in tumor microenvironment of CT26-bearing mice, responders vs non responders; design: species or system BALB/c mice; details: RNAseq total counts
Description: as §1
RNA was extracted from flash frozen tumors using the Qiagen extraction kit and stored at −80° C. A paired-end sequencing was chosen, in which short reads are obtained from ends of DNA fragments for ultra-high-throughput sequencing. Prior to further analysis, a quality check was performed on the sequencing data. All samples contain sequences 75 nucleotides long (75 nt×2).
The RNA-Seq analysis pipeline involved several steps: • 1. Quality Control of the reads, • 2. Removal of low quality reads • 3. Reads spliced Alignment • 4. Transcriptome expression quantification analysis
The sample was mapped on reference Mus musculus genome (mm10) using the bioinformatics tool STAR (version 2.4.0d), with the standard parameters for paired reads. The reference track was the assembly mm10 obtained from Refseq. […] Average mapping ratio was above 93% and Ribosomal content was below 1% for all samples.
The quantification of transcripts expressed for each sequenced sample was performed using Cufflinks. The units of measurement used in Cufflinks is FPKM (Fragments Per Kilobase of transcript per Million mapped reads) and it is meant to be a measure of relative abundance of a transcript/gene in a RNA pool. It is not intended to be used directly for Differential Expression but it is meant to be human readable, and takes into account main technical confounding factors such as millions of reads and gene length.
Responders and non-responders were selected based on tumor volume at day 20. […]
Statistical significance was determined by unpaired t-test using GraphPad software (version 9), p-values […] were considered significant.

For `O=C(NO)c1ccc(Cn2nnnc2-c2cccs2)cc1` [ITF3756, N-hydroxy-4-((5-(thiophen-2-yl)-1 H-tetrazol-1-yl)methyl)benzamide], the “surface expression of PD-L1 (upregulation by TNF-α)” value (PD-L1) was “inhibited”, the M1 macrophages (macrophages) was “increase in M1 macrophages” and the tolerability [1] was “well tolerated”. For the same compound, the “tumor response (tumor volume)” value (CT26 tumor cells) was “heterogeneous response”, the tolerability [2] was “well tolerated” and the tolerability [3] was “well tolerated”. The IRF6 gene modulation (PBMC) was “upregulation”, the STAB1 gene modulation (PBMC) was “downmodulation” and the “IRF6 expression in the tumor microenvironment, responders compared to non responders” value ([4]; p<0.1) was “striking expression upregulation”. For the same compound, the “CD40 expression in the tumor microenvironment, responders compared to non-responder mice” value ([4]; unpaired t-test) was “statistically significant upregulation” and the “MMP9 expression in the tumor microenvironment, responders compared to non responders” value ([4]; unpaired t-test) was “statistically significant reduction”.
